The experiment concerns 242566-281-R-J2-PDC complex spheroid viability. Put plainly: Anticancer human tumor 242566-281-R-J2-PDC patient-derived pancreatic carcinoma cell line growth inhibition [CLK]. The conditions noted are these: for viability, T/C: stronger effect = lower value. Summed up:
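Multi-cell-type spheroids combined patient-derived tumor cells with HUVEC endothelial cells and human mesenchymal stem cells. Paired agents were dosed in half-log steps down from about clinical Cmax, or from 10 microM where Cmax was unknown.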

[1] abbreviates: curve of first compound, second compound 0.0316 µM.
The mark [2] stands for this setting: curve of first compound, second compound 0.1 µM.
[3] abbreviates: curve of first compound, second compound 0.316 µM.
The mark [4] stands for this setting: curve of first compound, second compound 1 µM.
[5] abbreviates: curve of first compound, second compound 3.16 µM.
The mark [6] stands for this setting: curve of first compound, second compound 10 µM.

pIC50: −log10 of the molar value. Several values for one entry are separate records, joined by “and”; a condition that tells them apart may be missing. Identical values can stand only once.
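Further: spheroids exposed to compounds for 7 days before readout.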
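Wherever viability, T/C is given: 100% = DMSO vehicle control wells.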

A word on the viability, T/C: it is the ratio of treated to control. What is called pIC50 is the IC50 on a negative log10 scale, so that one unit is a factor of ten. Turning to `Nc1ccn(C2OC(CO)C(O)C2(F)F)c(=O)n1` (stereo not given), the viability, T/C (compound 0.0316 µM) was 39.5% and 87%; the viability, T/C (compound 0.1 µM) was 16.9% and 43.3%; the viability, T/C (compound 0.316 µM) is 11.7% and 21.3%; the viability, T/C (compound 1 µM) was 9.16% and 13.8%; the viability, T/C (compound 3.16 µM) was 7.63% and 10.3%; the viability, T/C (compound 10 µM) was 6.49% and 9.77%. The pIC50 (curve of compound) is > 7.50 and 7.08.

In the case of `CC(CO)NC(=O)c1cc(-c2ccc(Cl)cc2)nn(-c2cnn(C)c2)c1=O` (stereo not given), the viability, T/C reads like this: (compound 0.0316 µM) 94.4% and 97.3%; (compound 0.1 µM) 96.2% and 94.5%; (compound 0.316 µM) 85.6% and 102%; (compound 1 µM) 116% and 98.1%; (compound 3.16 µM) 131% and 97.1%; (compound 10 µM) 75.8% and 82.5%. Moreover, the negative logarithm of the IC50 (pIC50) (curve of compound) is less than 5.00.

On to `NC(=O)C(=Cn1cnc(-c2cc(C(F)(F)F)cc(C(F)(F)F)c2)n1)c1cncnc1` + CNC(=O)c1ccc(Nc2nc(OC3CCCC3)c3c(-c4ccc5nc(C)oc5c4)c[nH]c3n2)c(OC)c1, for which the negative logarithm of the IC50 (pIC50) runs as follows: under setting [1], less than 5.52; under setting [2], less than 5.52; under setting [3], 5.70; under setting [4], 6.12; under setting [5], 6.39; under setting [6], 6.51. Further, the viability, T/C was 119% (second compound 0.0316 µM, first compound 0.00949 µM); 129% (second compound 0.0316 µM, first compound 0.03 µM); 128% (second compound 0.0316 µM, first compound 0.0949 µM); 141% (second compound 0.0316 µM, first compound 0.3 µM); 109% (second compound 0.0316 µM, first compound 0.949 µM); 57.1% (second compound 0.0316 µM, first compound 3 µM). Also, the viability, T/C is, setting by setting: (second compound 0.1 µM, first compound 0.00949 µM) 109%; (second compound 0.1 µM, first compound 0.03 µM) 125%; (second compound 0.1 µM, first compound 0.0949 µM) 130%; (second compound 0.1 µM, first compound 0.3 µM) 129%; (second compound 0.1 µM, first compound 0.949 µM) 98%; (second compound 0.1 µM, first compound 3 µM) 51.1%. Moreover, the viability, T/C was 106% (second compound 0.316 µM, first compound 0.00949 µM); 91.5% (second compound 0.316 µM, first compound 0.03 µM); 117% (second compound 0.316 µM, first compound 0.0949 µM); 122% (second compound 0.316 µM, first compound 0.3 µM); 69.1% (second compound 0.316 µM, first compound 0.949 µM); 39.2% (second compound 0.316 µM, first compound 3 µM). In addition, the viability, T/C is 87.2% (second compound 1 µM, first compound 0.00949 µM); 99.1% (second compound 1 µM, first compound 0.03 µM); 87.2% (second compound 1 µM, first compound 0.0949 µM); 86.4% (second compound 1 µM, first compound 0.3 µM); 41.2% (second compound 1 µM, first compound 0.949 µM); 12.4% (second compound 1 µM, first compound 3 µM). Also, the viability, T/C by setting is: (second compound 3.16 µM, first compound 0.00949 µM) 77.4%; (second compound 3.16 µM, first compound 0.03 µM) 82.6%; (second compound 3.16 µM, first compound 0.0949 µM) 78.3%; (second compound 3.16 µM, first compound 0.3 µM) 57.9%; (second compound 3.16 µM, first compound 0.949 µM) 25.8%; (second compound 3.16 µM, first compound 3 µM) 5.98%. Moreover, the viability, T/C by setting is: (second compound 10 µM, first compound 0.00949 µM) 72.5%; (second compound 10 µM, first compound 0.03 µM) 70.6%; (second compound 10 µM, first compound 0.0949 µM) 71.8%; (second compound 10 µM, first compound 0.3 µM) 49.8%; (second compound 10 µM, first compound 0.949 µM) 17.3%; (second compound 10 µM, first compound 3 µM) 4.4%.

In the case of `C=C(F)C(=O)N1CCN(c2nc(OCC3CCCN3C)nc3c2CCN(c2cccc4cccc(Cl)c24)C3)CC1CC#N` (stereo not given) + CN1CCN(c2cc(C(=O)Nc3cc4cc(-c5cnn(C)c5)ccc4cn3)ccn2)CC1, the negative logarithm of the IC50 (pIC50) is 5.30 under setting [1]; 5.37 under setting [2]; more than 7.50 under setting [3]; more than 7.50 under setting [4]; more than 7.50 under setting [5]; more than 7.50 under setting [6]. For the same molecule, the viability, T/C by setting is: (second compound 0.0316 µM, first compound 0.0316 µM) 84.6%; (second compound 0.0316 µM, first compound 0.1 µM) 115%; (second compound 0.0316 µM, first compound 0.316 µM) 104%; (second compound 0.0316 µM, first compound 1 µM) 114%; (second compound 0.0316 µM, first compound 3.16 µM) 82.7%; (second compound 0.0316 µM, first compound 10 µM) 0.15%. Also, the viability, T/C is, setting by setting: (second compound 0.1 µM, first compound 0.0316 µM) 103%; (second compound 0.1 µM, first compound 0.1 µM) 95.9%; (second compound 0.1 µM, first compound 0.316 µM) 90.9%; (second compound 0.1 µM, first compound 1 µM) 90.2%; (second compound 0.1 µM, first compound 3.16 µM) 67.7%; (second compound 0.1 µM, first compound 10 µM) 0.87%. In addition, the viability, T/C (second compound 0.316 µM, first compound 0.0316 µM) is 42.9%; the viability, T/C (second compound 0.316 µM, first compound 0.1 µM) is 38.7%; the viability, T/C (second compound 0.316 µM, first compound 0.316 µM) was 50.4%; the viability, T/C (second compound 0.316 µM, first compound 1 µM) was 41.3%; the viability, T/C (second compound 0.316 µM, first compound 3.16 µM) was 25.2%; the viability, T/C (second compound 0.316 µM, first compound 10 µM) was 0.12%. Also, the viability, T/C is 4.94% (second compound 1 µM, first compound 0.0316 µM); 4.71% (second compound 1 µM, first compound 0.1 µM); 4.65% (second compound 1 µM, first compound 0.316 µM); 4.68% (second compound 1 µM, first compound 1 µM); 3.14% (second compound 1 µM, first compound 3.16 µM); 0.13% (second compound 1 µM, first compound 10 µM). The viability, T/C was 7.96% (second compound 3.16 µM, first compound 0.0316 µM); 8.51% (second compound 3.16 µM, first compound 0.1 µM); 7.38% (second compound 3.16 µM, first compound 0.316 µM); 6.75% (second compound 3.16 µM, first compound 1 µM); 4.99% (second compound 3.16 µM, first compound 3.16 µM); 0.12% (second compound 3.16 µM, first compound 10 µM). In addition, the viability, T/C (second compound 10 µM, first compound 0.0316 µM) was 2.22%; the viability, T/C (second compound 10 µM, first compound 0.1 µM) was 2.75%; the viability, T/C (second compound 10 µM, first compound 0.316 µM) is 2.19%; the viability, T/C (second compound 10 µM, first compound 1 µM) is 1.43%; the viability, T/C (second compound 10 µM, first compound 3.16 µM) was 0.37%; the viability, T/C (second compound 10 µM, first compound 10 µM) is 0.24%.

`C=CC(=O)N1CCN(c2nc(=O)n(-c3c(C)ccnc3C(C)C)c3nc(-c4c(O)cccc4F)c(F)cc23)C(C)C1` (stereo not given): the viability, T/C (compound 0.0316 µM) is 95.5% and 104%; the viability, T/C (compound 0.1 µM) is 80.4% and 92.4%; the viability, T/C (compound 0.316 µM) is 78.5% and 103%; the viability, T/C (compound 1 µM) was 104% and 90.6%; the viability, T/C (compound 3.16 µM) was 102% and 88.7%; the viability, T/C (compound 10 µM) is 70.8% and 77.6%. Further, the negative logarithm of the IC50 (pIC50) (curve of compound) was less than 5.00.

Values taken from PubChem BioAssay AID2060622 (Molecular Pharmacology Branch, DTP, NCI, 2025).
